According to ChEMBL document CHEMBL4229333, “Effects of rigidity on the selectivity of protein kinase inhibitors” (Eur J Med Chem, 2018):
Activity calls are given as the source filed them. The rule behind the calls is not given here.

Columns and labels:
[1] = biological target: T1, Tyrosine-protein kinase ABL1 (Homo sapiens, UniProt P00519); assay: Inhibition of ABL (unknown origin) by phosphocellulose paper disk assay
[2] = biological target: Serine/threonine-protein kinase B-raf (Homo sapiens, UniProt P15056, V600E); assay: Inhibition of BRAF V600E mutant (unknown origin) after 20 mins by immunoblotting assay
Chain of Serine/threonine-protein kinase B-raf (P15056 2-766 V600E limits assumed): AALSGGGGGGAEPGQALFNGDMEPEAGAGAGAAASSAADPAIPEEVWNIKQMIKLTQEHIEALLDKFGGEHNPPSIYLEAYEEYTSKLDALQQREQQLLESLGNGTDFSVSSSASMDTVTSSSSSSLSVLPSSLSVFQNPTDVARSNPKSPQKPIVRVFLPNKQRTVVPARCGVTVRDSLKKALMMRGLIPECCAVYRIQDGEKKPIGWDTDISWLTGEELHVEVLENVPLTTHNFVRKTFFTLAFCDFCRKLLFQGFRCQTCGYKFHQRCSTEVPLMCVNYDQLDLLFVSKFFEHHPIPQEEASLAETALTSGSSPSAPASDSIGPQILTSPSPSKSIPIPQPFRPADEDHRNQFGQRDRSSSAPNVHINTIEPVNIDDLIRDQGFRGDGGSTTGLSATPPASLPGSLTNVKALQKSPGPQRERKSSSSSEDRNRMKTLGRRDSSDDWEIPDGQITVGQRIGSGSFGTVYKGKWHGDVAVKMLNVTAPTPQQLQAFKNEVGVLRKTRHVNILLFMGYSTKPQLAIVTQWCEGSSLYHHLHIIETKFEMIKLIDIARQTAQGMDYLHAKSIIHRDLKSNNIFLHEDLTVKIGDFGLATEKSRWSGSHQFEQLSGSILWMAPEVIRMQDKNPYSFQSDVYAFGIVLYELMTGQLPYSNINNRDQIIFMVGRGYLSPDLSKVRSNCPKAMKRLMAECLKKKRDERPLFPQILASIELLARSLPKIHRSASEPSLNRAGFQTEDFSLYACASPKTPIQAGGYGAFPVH

[3] = biological target: T1, Tyrosine-protein kinase ABL1; assay: Inhibition of ABL (unknown origin) at 30 nM by phosphocellulose paper disk assay
Bcr/Abl fusion protein = Bcr/Abl fusion protein (Homo sapiens, UniProt P00519); assay: Inhibition of BCR-ABL (unknown origin) expressed in mouse BA/F3 cells assessed as reduction in ABL phosphorylation at Y412 residue incubated for 3 hrs by immunoblotting assay; format: cell-based
Chain of Bcr/Abl fusion protein (P00519 whole entry, the tested form may be a part): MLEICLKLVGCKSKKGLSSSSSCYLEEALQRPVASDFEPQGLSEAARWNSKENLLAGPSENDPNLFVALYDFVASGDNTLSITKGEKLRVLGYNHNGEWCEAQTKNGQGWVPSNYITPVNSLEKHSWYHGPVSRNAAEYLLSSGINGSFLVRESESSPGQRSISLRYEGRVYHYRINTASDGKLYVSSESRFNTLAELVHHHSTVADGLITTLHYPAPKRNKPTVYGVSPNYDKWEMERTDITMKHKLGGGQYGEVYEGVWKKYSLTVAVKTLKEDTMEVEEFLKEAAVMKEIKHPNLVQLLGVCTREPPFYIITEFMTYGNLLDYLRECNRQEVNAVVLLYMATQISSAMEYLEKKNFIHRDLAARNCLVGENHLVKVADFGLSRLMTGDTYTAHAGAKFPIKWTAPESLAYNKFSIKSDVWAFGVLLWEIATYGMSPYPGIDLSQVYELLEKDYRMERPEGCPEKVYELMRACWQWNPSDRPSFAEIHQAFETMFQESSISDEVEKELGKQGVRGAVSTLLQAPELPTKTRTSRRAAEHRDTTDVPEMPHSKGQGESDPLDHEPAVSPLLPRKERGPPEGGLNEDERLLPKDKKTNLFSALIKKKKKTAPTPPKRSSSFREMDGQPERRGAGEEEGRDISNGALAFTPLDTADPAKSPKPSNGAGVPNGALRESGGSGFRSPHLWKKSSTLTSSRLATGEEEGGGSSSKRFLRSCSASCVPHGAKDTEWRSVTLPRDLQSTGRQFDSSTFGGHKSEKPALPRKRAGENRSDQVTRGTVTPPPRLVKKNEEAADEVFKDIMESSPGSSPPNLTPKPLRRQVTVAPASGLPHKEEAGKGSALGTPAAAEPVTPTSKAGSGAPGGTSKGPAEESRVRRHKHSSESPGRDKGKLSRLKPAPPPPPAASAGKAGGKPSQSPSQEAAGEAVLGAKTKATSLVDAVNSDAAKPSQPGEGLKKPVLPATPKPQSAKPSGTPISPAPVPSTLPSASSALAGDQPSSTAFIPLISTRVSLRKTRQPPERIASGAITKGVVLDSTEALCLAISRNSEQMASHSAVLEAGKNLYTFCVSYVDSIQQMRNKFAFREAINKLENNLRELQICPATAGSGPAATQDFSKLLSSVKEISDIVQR
Chain of Bcr/Abl fusion protein (P11274 whole entry, further chain, the tested form may be a part): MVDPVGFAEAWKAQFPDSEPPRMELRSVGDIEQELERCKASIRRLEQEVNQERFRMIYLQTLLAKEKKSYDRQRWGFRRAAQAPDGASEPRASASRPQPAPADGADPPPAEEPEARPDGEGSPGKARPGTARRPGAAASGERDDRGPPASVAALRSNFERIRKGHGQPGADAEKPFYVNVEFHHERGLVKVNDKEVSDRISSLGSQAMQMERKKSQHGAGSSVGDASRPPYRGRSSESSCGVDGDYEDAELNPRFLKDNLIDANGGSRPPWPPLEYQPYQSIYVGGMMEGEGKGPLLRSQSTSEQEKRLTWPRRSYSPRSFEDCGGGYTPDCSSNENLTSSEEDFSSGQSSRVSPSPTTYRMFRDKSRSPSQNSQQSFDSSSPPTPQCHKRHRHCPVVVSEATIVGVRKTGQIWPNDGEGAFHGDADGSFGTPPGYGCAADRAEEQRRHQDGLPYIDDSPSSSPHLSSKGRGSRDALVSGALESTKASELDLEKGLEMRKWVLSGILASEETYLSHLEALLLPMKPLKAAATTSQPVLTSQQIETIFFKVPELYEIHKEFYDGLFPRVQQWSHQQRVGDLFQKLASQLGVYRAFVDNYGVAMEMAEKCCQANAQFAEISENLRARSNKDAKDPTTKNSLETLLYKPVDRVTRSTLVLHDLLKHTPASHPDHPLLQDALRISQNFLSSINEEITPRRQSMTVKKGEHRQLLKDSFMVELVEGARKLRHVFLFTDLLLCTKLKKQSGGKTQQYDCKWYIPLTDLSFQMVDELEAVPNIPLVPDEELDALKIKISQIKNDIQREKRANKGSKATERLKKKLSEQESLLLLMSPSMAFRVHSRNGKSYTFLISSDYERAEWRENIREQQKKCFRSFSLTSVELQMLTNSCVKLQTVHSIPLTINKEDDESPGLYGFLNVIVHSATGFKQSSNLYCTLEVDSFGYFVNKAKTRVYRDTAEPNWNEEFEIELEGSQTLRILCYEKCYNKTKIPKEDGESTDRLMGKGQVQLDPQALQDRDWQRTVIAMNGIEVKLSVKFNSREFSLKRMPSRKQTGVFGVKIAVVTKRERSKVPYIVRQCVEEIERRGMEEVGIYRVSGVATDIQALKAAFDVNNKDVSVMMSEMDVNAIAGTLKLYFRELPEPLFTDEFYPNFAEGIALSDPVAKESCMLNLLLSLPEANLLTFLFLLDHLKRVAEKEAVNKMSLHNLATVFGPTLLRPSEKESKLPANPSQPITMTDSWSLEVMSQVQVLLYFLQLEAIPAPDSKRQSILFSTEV

[4] = tested on: Serine/threonine-protein kinase B-raf (Homo sapiens), P15056 [V600E]; assay: Inhibition of BRAF V600E mutant in human A375 cells assessed as decrease in MEK phosphorylation up to 100 uM after 1 hr by immunoblotting assay; format: cell-based
Chain of Serine/threonine-protein kinase B-raf (Homo sapiens), P15056 [V600E] (P15056 whole entry V600E): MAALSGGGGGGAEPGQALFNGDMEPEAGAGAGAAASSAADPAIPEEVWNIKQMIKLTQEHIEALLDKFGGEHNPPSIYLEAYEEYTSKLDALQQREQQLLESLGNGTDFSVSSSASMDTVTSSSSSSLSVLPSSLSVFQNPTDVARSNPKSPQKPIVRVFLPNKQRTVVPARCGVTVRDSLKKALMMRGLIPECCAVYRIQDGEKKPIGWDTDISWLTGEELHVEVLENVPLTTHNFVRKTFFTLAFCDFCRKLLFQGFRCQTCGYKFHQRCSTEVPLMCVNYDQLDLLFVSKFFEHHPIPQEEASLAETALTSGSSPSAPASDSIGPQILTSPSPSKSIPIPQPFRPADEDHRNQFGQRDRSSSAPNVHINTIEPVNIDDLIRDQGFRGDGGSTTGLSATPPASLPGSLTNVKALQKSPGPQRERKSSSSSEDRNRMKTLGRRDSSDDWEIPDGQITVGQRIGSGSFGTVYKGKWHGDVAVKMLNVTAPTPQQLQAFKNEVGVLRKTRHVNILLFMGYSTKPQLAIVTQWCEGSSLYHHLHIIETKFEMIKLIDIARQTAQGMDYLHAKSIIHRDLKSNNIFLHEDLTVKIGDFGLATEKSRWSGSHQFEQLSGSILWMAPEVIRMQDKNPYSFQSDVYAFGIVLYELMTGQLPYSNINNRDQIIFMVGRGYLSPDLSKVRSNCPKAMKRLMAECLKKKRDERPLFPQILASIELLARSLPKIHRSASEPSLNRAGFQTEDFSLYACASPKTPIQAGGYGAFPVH

T1 sequence (P00519 whole entry): as the sequence (P00519 whole entry, the tested form may be a part) above

Compound | IC50 [1] [nM] | IC50 [2] [nM] | inhibition [3] | IC50 (Bcr/Abl fusion protein) [nM] | inhibition [4]
Cc1ccc2cc(-c3cccc(C(F)(F)F)c3)ncc2c1C#Cc1nn(C(C)C)c2ncnc(N)c12 | 10 | 44 | inactive |  | 
CC(C)n1nc(C#Cc2cccc3cc(-c4ccc(CN5CCN(C)CC5)cc4)ncc23)c2c(N)ncnc21 | 7 | 51 | inactive | 211 | 
CCn1nc(C#Cc2cccc3cc(-c4cccc(C(F)(F)F)c4)ncc23)c2c(N)ncnc21 | 3.5 | 13 | inactive |  | inactive
Cc1ccc(-c2cc3cccc(C#Cc4nn(C(C)C)c5ncnc(N)c45)c3cn2)cc1 |  | 24 |  |  | 

Other lines, results leading:

IC50 [1] [nM] | IC50 [2] [nM] | inhibition [3] | IC50 (Bcr/Abl fusion protein) [nM] | inhibition [4] | Compound
22 | 87 | inactive |  |  | CC(C)n1nc(C#Cc2cccc3cc(-c4ccc(Cl)c(C(F)(F)F)c4)ncc23)c2c(N)ncnc21
 | 46 |  |  |  | CC(C)n1nc(C#Cc2cccc3cc(-c4ccc(Cl)cc4)ncc23)c2c(N)ncnc21
